Consider one molecule from EP0993460B1, “BENZO(5,6)CYCLOHEPTA(1,2B)PYRIDINE DERIVATIVES USEFUL FOR INHIBITION OF FARNESYL PROTEIN TRANSFERASE” (SCHERING CORPORATION, priority 1997, dated 1998).

This assay has as its system COS Cell. Nature of the assay: COS Cell IC50 (Cell-Based Assay), procedures of WO 95/10516. How it is done: FPT IC50 (inhibition of farnesyl protein transferase, in vitro enzyme assay) and COS Cell IC50 (Cell-Based Assay) were determined following the assay procedures described in WO 95/10516, published April 20, 1995. GGPT IC50 (inhibition of geranylgeranyl protein transferase, in vitro enzyme assay), Cell Mat Assay, and anti-tumor activity (in vivo anti-tumor studies) could be determined by the assay procedures described in WO 95/ 10516. The disclosure of WO 95/10516 is incorporated herein by reference thereto.

pIC50: −log10 of the molar value.

In the case of `CC1(CC(=O)N2CCC([C@H]3c4ncc(Br)cc4CCc4cc(Cl)cc(Br)c43)CC2)CCN(S(C)(=O)=O)CC1` [Example 1, (+) -4-(3,10-dibromo-8-chloro-6,11-dihydro-5H-benzo[5,6]cyclohepta[1,2-b]pyridin-11(R)-yl)-1-[[4-methyl-1-(methylsulfonyl)-4-pyridinyl]acetyl]piperidine], the pIC50 is 7.66.

By pIC50 is commonly meant −log10 of the IC50, conventionally taken in molar units.
